Consider two molecules from US12714674B2, “JAK inhibitors having a specific particle size distribution” (Elanco US Inc., priority 2020, dated 2026).

The test system of data set [1] is pruritus and skin lesions associated with allergic dermatitis in dogs. Put plainly: Four-arm, blinded, randomized, placebo-controlled study: control of pruritus and skin lesions associated with allergic dermatitis in dogs. The format is in vivo, dog. The procedure:
This study evaluated 2-(3-(4-(7H-pyrrolo[2,3-d]pyrimidin-4-yl)-1H-pyrazol-1-yl)-1-(cyclopropylsulfonyl)azetidin-3-yl)acetonitrile for control of pruritus and skin lesions associated with allergic dermatitis in dogs.
Oral tablets were prepared containing Form II 2-(3-(4-(7H-pyrrolo[2,3-d]pyrimidin-4-yl)-1H-pyrazol-1-yl)-1-(cyclopropylsulfonyl)azetidin-3-yl)acetonitrile, as follows. […] The tablet blends were pressed giving tablet cores containing 2.4 mg, 3.6 mg, 5.4 mg, and 16 mg of crystal Form II 2-(3-(4-(7H-pyrrolo[2,3-d]pyrimidin-4-yl)-1H-pyrazol-1-yl)-1-(cyclopropylsulfonyl)azetidin-3-yl)acetonitrile, as well as a placebo core. The tablet cores were coated with a mixture containing water and Opadry 20A150011 Red, thereby giving the final oral tablets for the study.
A four-arm, blinded, randomized, placebo-controlled study was conducted to assess the efficacy of daily administration of 2-(3-(4-(7H-pyrrolo[2,3-d]pyrimidin-4-yl)-1H-pyrazol-1-yl)-1-(cyclopropylsulfonyl)azetidin-3-yl)acetonitrile for control of pruritus and skin lesions associated with allergic dermatitis in dogs. Subjects were randomized to one of the following treatment arms: API-containing Tablets, 0.25-0.40 mg/kg Body Weight; API-containing Tablets, 0.40-0.60 mg/kg Body Weight; API-containing Tablets, 0.60-0.80 mg/kg Body Weight; and Placebo Tablets, 0.0 mg/kg Body Weight.
Dogs enrolled in the study received once daily treatment for approximately 28 days. Baseline data (clinical history, concomitant therapies, body weight, physical examinations and assessments of pruritus and atopic dermatitis) were collected for each dog at enrollment (Day 0). Additional health assessments, physical examinations, body weight measurements, assessments of pruritus and atopic dermatitis, and collection of blood samples for hematology, serum chemistry and pharmacokinetic (PK) analysis occurred consistent with standard testing protocols.
The primary effectiveness variable was treatment success. A treatment success was defined as a 2 unit or more reduction from baseline on the 10-unit owner-assessed pruritus Visual-Analog Scale (VAS) in at least 70% of the first 7 treatment days (i.e., in at least 5 of the first 7 treatment days). Dogs withdrawn from the study within the first 7 days of treatment due to a perceived lack of effectiveness were considered treatment failures.
Random effects were fit for site and site treatment with a variance component covariance structure and a compound symmetry covariance structure was fit for individual dogs.

Data set [2] in a line: Particle size distribution of micronized (jet-milled) material, laser diffraction. The format is physicochemical. As for the experimental part: Micronization was begun with a short “setup” run of approximately 300 grams was performed using a feed rate of 9.6 kg/hr. Venturi/mill pressures were 10 psi.
Particle size distribution method of 2-(3-(4-(7H-pyrrolo[2,3-d]pyrimidin-4-yl)-1H-pyrazol-1-yl)-1-(cyclopropylsulfonyl)azetidin-3-yl)acetonitrile.
Method: 150 to 175 mg 2-(3-(4-(7H-pyrrolo[2,3-d]pyrimidin-4-yl)-1H-pyrazol-1-yl)-1-(cyclopropylsulfonyl)azetidin-3-yl)acetonitrile sample are dispersed with 1 ml Tween20/water mixture (10/90 v/v %) to a paste in a beaker. The entire paste is then transferred to the measuring cuvette (beaker is rinsed out with water for complete sample transfer) and dispersed in 300 ml water. To homogenize the suspension in the measuring cuvette, the pump speed is set to 600 rpm. Before measurement the sample is stirred for 30 seconds. The optical concentration should be in the range of approximately 15 to 20% but the value depends strongly on the particle size distribution in the sample. If the 15 to 20% range is not reached either more sample paste must be added or the sample has to be diluted with water.
Equipment: a Helos laser diffractometer from Sympatec is used. Suspensions are measured using a Quixel cell. Dry measurement is done using the Rodos unit. Evaluation is done using the Paqxos software.

The mark [3] stands for this setting: Example 50 setup run, feed rate 9.6 kg/hr, venturi/mill pressures 10 psi.
[4] abbreviates: PSD method of Example 51, Helos laser diffractometer, suspension in water/Tween20.

SMILES strings stand for the structures.

`N#CCC1(n2cc(-c3ncnc4[nH]ccc34)cn2)CN(S(=O)(=O)C2CC2)C1` [2-(3-(4-(7H-pyrrolo[2,3-d]pyrimidin-4-yl)-1H-pyrazol-1-yl)-1-(cyclopropylsulfonyl)azetidin-3-yl)acetonitrile]: in data set [1] (0.6-0.8 mg/kg once daily), the “primary endpoint for treatment success” value is recorded as “achieved the primary endpoint for treatment success”. The “Treatment Success LSMean (response rate)” value in data set [1] (0.60-0.80 mg/kg once daily oral tablets containing Form II, success = 2 unit or more reduction on owner pruritus VAS in at least 5 of first 7 treatment days, generalized linear mixed model) was 0.7188. In addition, the “improvement in lesion scores” value in data set [1] (0.6-0.8 mg/kg once daily, day 28) is “significant improvement in lesion scores at day 28”. In data set [1] (0.6-0.8 mg/kg once daily, from first dose), the improvement in pruritus result is given as “significant improvements in pruritus from first dose”.
Consider `N#CCC1(n2cc(-c3ncnc4[nH]ccc34)cn2)CN(S(=O)(=O)C2CC2)C1` [sample “I”, 2-(3-(4-(7H-pyrrolo[2,3-d]pyrimidin-4-yl)-1H-pyrazol-1-yl)-1-(cyclopropylsulfonyl)azetidin-3-yl)acetonitrile], for which, in data set [2] (setting [3]), the dv10 amounted to 4 µm, the dv50 amounted to 20 µm and the dv90 was 53 µm. Moreover, in data set [2] (setting [4]), the dv10 was found to be 4 µm, the dv50 worked out at 20 µm and the dv90 amounted to 51 µm.
